Results reported in ChEMBL document CHEMBL1138105, “Highly potent and selective zwitterionic agonists of the delta-opioid receptor. Part 1” (Bioorg Med Chem Lett, 2006).
Calls of active or inactive are those of the source. No cut-off for these calls is given here.

Assays:
[1] = target: Kappa-type opioid receptor (Cavia porcellus, UniProt P41144); assay: Agonist activity at kappa opioid receptor in myenteric plexus muscle from guinea pig; type: functional
[2] = target: Delta-type opioid receptor (Mus musculus, UniProt P32300)
Description: Agonist activity at delta opioid receptor in mouse vas deferens

Mu-type opioid receptor = Mu-type opioid receptor (Cavia porcellus, UniProt P97266); assay: Agonist activity at mu opioid receptor in myenteric plexus muscle from guinea pig; type: functional
[3] = Distribution coefficient of the compound, log D at pH 7.4; type: physicochemical; settings: octanol/water
Mus musculus [4] = assay: Effect on locomotor activity in mouse hyper locomotion model at 100 ug/kg, iv; type: functional, organism-based
Mus musculus [5] = assay: Effect on locomotor activity in mouse hyper locomotion model at 1000 ug/kg, iv; type: functional, organism-based
Mus musculus [6] = assay: Effect on locomotor activity in mouse hyper locomotion model at 400 ug/kg, iv; type: functional, organism-based
[7] = target: Delta-type opioid receptor (Homo sapiens, UniProt P41143); assay: Binding affinity at human delta opioid receptor expressed in CHO cells; type: cell-based, Cricetulus griseus
[8] = Plasma clearance in dog; type: ADME, organism-based, Canis lupus familiaris
[9] = Oral bioavailability in dog; type: ADME, organism-based, Canis lupus familiaris; settings: in vivo
[10] = Volume of distribution in dog; type: ADME, organism-based, Canis lupus familiaris; settings: in vivo, read-out: Vdss

Mu-type opioid receptor, sequence (P97266 whole entry): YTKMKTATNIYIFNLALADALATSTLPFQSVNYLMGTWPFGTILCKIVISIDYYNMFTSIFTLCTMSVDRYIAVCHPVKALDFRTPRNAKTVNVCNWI
Kappa-type opioid receptor, sequence (P41144 whole entry): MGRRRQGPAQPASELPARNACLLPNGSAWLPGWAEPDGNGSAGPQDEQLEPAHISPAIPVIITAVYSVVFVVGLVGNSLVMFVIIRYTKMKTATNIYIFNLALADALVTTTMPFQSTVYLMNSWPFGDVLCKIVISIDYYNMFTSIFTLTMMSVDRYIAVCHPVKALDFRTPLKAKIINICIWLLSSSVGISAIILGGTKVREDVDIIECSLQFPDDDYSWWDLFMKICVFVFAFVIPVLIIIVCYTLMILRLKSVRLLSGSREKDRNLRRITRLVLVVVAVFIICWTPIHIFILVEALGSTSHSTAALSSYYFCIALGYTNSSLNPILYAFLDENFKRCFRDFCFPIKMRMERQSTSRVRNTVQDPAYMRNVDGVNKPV
Delta-type opioid receptor (Mus musculus, UniProt P32300), sequence (P32300 whole entry): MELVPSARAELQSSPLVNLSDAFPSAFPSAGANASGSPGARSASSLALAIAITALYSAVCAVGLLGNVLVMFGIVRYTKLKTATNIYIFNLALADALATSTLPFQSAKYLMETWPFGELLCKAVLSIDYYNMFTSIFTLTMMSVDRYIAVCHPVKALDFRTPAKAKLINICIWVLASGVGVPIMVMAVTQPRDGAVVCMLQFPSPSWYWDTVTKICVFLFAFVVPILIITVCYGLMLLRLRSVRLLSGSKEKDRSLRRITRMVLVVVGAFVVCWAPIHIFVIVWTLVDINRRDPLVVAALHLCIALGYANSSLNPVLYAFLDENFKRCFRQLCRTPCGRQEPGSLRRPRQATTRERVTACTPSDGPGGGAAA
Delta-type opioid receptor (Homo sapiens, UniProt P41143), sequence (P41143 whole entry): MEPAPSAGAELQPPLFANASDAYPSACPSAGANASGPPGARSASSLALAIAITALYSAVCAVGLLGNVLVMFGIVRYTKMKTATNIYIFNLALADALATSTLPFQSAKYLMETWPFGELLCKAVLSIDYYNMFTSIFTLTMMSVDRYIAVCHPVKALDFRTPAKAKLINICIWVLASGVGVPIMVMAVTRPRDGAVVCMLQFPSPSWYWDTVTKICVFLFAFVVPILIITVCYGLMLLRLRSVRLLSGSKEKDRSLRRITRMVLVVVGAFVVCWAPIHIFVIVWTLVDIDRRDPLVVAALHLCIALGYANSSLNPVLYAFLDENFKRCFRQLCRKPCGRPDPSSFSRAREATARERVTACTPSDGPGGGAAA

Compound	IC50 [1] [nM]	IC50 [2] [nM]	IC50 (Mu-type opioid receptor) [nM]	logD [3]	also measured
C[C@@H]1CN([C@@H](c2cccc(O)c2)c2ccc3c(c2)CN(CC(=O)O)C3)[C@@H](C)CN1Cc1ccccc1	1260	0.501	126		
C=CCN1C[C@H](C)N([C@H](c2ccc(C(=O)N(CC)CC)cc2)c2cccc(O)c2)C[C@H]1C		0.631			
C[C@@H]1CN([C@@H](c2cccc(F)c2)c2ccc3c(c2)CN(CCC(=O)O)C3)[C@@H](C)CN1Cc1ccccc1		25.1			
C[C@@H]1CN([C@@H](c2ccccc2)c2ccc3c(c2)CN(CCC(=O)O)C3)[C@@H](C)CN1Cc1ccccc1		63.1			
C[C@@H]1CN([C@@H](c2cccc(F)c2)c2ccc3c(c2)CN(C(=O)CC(=O)O)CC3)[C@@H](C)CN1Cc1ccccc1		20			
C[C@@H]1CN([C@@H](c2cccc(O)c2)c2ccc3c(c2)CN(CC(=O)O)CC3)[C@@H](C)CN1Cc1ccccc1	1000	0.0398	316	2.1	
C[C@@H]1CN([C@@H](c2cccc(O)c2)c2ccc3c(c2)CN(C(=O)c2ccccc2C(=O)O)C3)[C@@H](C)CN1Cc1ccccc1	3980	0.316	50.1		
C[C@@H]1CN([C@H](c2ccc(-c3ccccc3C(=O)O)cc2)c2cccc(O)c2)[C@@H](C)CN1Cc1ccccc1		0.02		2.3	
C[C@@H]1CN([C@@H](c2cccc(O)c2)c2ccc3c(c2)CN(CCC(=O)O)CC3)[C@@H](C)CN1Cc1ccccc1	5010	0.00501	1000	2.1	
COc1cccc([C@@H](c2ccc3c(c2)CN(CCC(=O)O)CC3)N2C[C@@H](C)N(Cc3ccccc3)C[C@@H]2C)c1	1000	12.6	> 10000	2.3	
C[C@@H]1CN([C@@H](c2cccc(O)c2)c2ccc3c(c2)CN(C(=O)C(=O)O)CC3)[C@@H](C)CN1Cc1ccccc1	398	0.00158	200	1.6	
C[C@@H]1CN([C@@H](c2cccc(O)c2)c2ccc3c(c2)CN(Cc2ccccc2C(=O)O)C3)[C@@H](C)CN1Cc1ccccc1		3.16			
COc1cccc([C@@H](c2ccc3c(c2)CN(CC(=O)O)C3)N2C[C@@H](C)N(Cc3ccccc3)C[C@@H]2C)c1		25.1			
C[C@@H]1CN([C@@H](c2cccc(O)c2)c2ccc3c(c2)CN(C(=O)CC(=O)O)CC3)[C@@H](C)CN1Cc1ccccc1	398	0.001	200	0.4	
C[C@@H]1CN([C@H](c2ccc(CCC(=O)O)cc2)c2cccc(O)c2)[C@@H](C)CN1Cc1ccccc1		0.126		2.1	Activity (Mus musculus [4]): Active
C[C@@H]1CN([C@H](c2ccc(CC(=O)O)cc2)c2cccc(O)c2)[C@@H](C)CN1Cc1ccccc1		0.158		1.1	Activity (Mus musculus [5]): Active
C[C@@H]1CN([C@@H](c2cccc(O)c2)c2ccc3c(c2)CN(CCC(=O)O)C3)[C@@H](C)CN1Cc1ccccc1	7940	1	631		
C=CCN1C[C@H](C)N([C@H](c2ccc(C(=O)N(CC)CC)cc2)c2cccc(OC)c2)C[C@H]1C [SNC-80]	1260		> 10000		Activity (Mus musculus [6]): Active
COc1cccc([C@@H](c2ccc3c(c2)CN(CC(=O)O)CC3)N2C[C@@H](C)N(Cc3ccccc3)C[C@@H]2C)c1	1260	2	5010	2.5	IC50 [7]: 5.01 nM; clearance [8]: 17 mL/min/kg; bioavailability [9]: 20%; Vd [10]: 5.4 L/kg
C[C@@H]1CN([C@@H](c2cccc(F)c2)c2ccc3c(c2)CN(CCC(=O)O)CC3)[C@@H](C)CN1Cc1ccccc1		100			
COc1cccc([C@@H](c2ccc3c(c2)CN(C(=O)CC(=O)O)CC3)N2C[C@@H](C)N(Cc3ccccc3)C[C@@H]2C)c1		15.8		1.3	
C[C@@H]1CN([C@@H](c2cccc(O)c2)c2ccc3c(c2)CN(C(=O)c2cccc(C(=O)O)c2)C3)[C@@H](C)CN1Cc1ccccc1	1260	1.58	100		
COc1cccc([C@@H](c2ccc3c(c2)CN(CCC(=O)O)C3)N2C[C@@H](C)N(Cc3ccccc3)C[C@@H]2C)c1	> 10000	631	> 10000		
